Laboratory results from US11713470B2, “Targeted gene therapies for pain and other neuro-related disorders” (University of Pittsburgh—Of the Commonwealth System of …, priority 2017, dated 2023).

Target: T1, PSAM-GlyR (Homo sapiens, UniProt P23415+P36544, L141F)
T1 construct: plasmid from Addgene (Sternson); host or cells: mouse dorsal horn neurons transduced with Cre-dependent AAV2/8 (Tlx3^Cre, CCK^Cre or Calr^Cre mice)
Test: Patch clamp electrophysiology in spinal cord slices of Tlx3^Cre mice injected with AAV8-Flex-PSAM-GlyR
Type: tissue-based, mouse
Experimental: FIGS. 6A and 6B. Positive and negative controls for PSAM-GlyR and PSEM^89S. (a) Schematic of PSAM-GlyR construct with GFP reporter used to make AAV8-hSyn-Flex-PSAM-GlyR. Virus was injected into Tlx3^Cre mice for electrophysiological slice recordings. (b) Electrode impaling a GFP^+ cell (also shown as DI, image) in a transverse slice of the dorsal horn from a Tlx3^Cre mouse injected with AAV8-hSyn-Flex-PSAMGlyR virus. […] (e) Control for the specificity of α-BTX-Alexa647. Contralateral dorsal horn lacks staining for α-BTX-Alexa647. Calretinin (green in original); PKCγ. Scale bar=50 μm. Box indicates area of inset. (f) In mice lacking PSAM-GlyR, mechanical allodynia and heat hypersensitivity induced by the carrageenan pain model are not altered by injection of PSEM^89S (30 mg/kg, i.p.) (p>0.999, n=4) (g) Punctate and dynamic allodynia induced by CFA are also not altered by injection of PSEM^89S (p>0.999, n=6). (h) In the mice lacking PSAM-GlyR, punctate and dynamic allodynia induced by the sural-SNI model are not altered by injection of PSEM^89S (30 mg/kg, i.p.) ([…], n=6). Data are mean±standard error of the mean (SEM). ***P<0.001; ns=not significant (i.e. p>0.05)
Prior to assessing the role of the neurons in somatosensory behavior, the ability of PSAM-GlyR to inhibit excitatory interneurons in the dorsal horn was tested using electrophysiological recordings in spinal cord slices. AAV8-Flex-PSAM-GlyR was injected intraspinally into the dorsal horn of P16 Tlx3^Cre mice. In this mouse line, the recombinase is strictly expressed by excitatory neurons located throughout laminae I-III. Three weeks later, neuronal excitability was measured using patch clamp electrophysiology in spinal cord slices in the presence and absence of PSEM^89S (FIG. 6(a-d)). To identify PSAM-GlyR^+ neurons, we identified cells expressing green fluorescent protein (GFP), which is also encoded by the PSAM-GlyR viral construct (FIG. 6(a,b)). […] We also tested the effect of the ligand PSEM^89S on pain behavior in mice lacking the receptor (FIG. 6(f,h)).

T1 sequence (P36544+P23415 fused P36544:L141F): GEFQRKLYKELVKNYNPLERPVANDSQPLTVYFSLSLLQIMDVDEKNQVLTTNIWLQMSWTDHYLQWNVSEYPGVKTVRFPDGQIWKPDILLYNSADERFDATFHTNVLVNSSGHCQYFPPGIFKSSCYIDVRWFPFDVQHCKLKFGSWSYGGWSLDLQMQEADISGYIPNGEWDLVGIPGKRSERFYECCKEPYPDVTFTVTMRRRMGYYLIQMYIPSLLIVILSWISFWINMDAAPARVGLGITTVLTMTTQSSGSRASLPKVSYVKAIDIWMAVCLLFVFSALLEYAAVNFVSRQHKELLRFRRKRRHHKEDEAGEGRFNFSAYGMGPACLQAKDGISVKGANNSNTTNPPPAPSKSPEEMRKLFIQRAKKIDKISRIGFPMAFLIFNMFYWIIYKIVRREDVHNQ

COc1ccc(OC)c(C(=O)NC2CN3CCC2CC3)c1 (stereo not drawn) [PSEM^89S]
decrease of membrane potential (30 μM PSEM^89S applied to spinal cord slices, GFP^+ neurons, n=3 cells from 2 mice): −7.3±3.4 mV
action potentials generated by current injection (30 μM, GFP^+ cells): completely blocked
hyperpolarization on bath application (30 μM, specifically in GFP-expressing cells): sustained hyperpolarization
